Measurements: patent publication US6218425A, “8-substituted B-nor-6-Thiaequilenin compounds having activity as selective estrogen receptor modulators” (Eli Lilly and Company, priority 1997, dated 2001)

Tests used:
ovariectomized rats = assay: Ovariectomized rat model of postmenopausal hyperlipidemia (serum cholesterol, uterine weight, uterine eosinophil infiltration); assay type: in vivo; conditions: for Serum Cholesterol % Decrease / Uterine Weight Increase: versus ovariectomized controls
Method: Experimental models of postmenopausal hyperlipidemia are known in the art.
This uterine response to estrogen is well recognized in the art.
As expressed in the data below, estrogenicity also was assessed by evaluating the response of eosinophil infiltration into the uterus.
The data presented in Table 2 reflect the response per treatment group.

estrogen receptor = estrogen receptor (Homo sapiens, UniProt P03372); conditions: competition with 0.5 nM 3H-17β-estradiol, MCF-7 lysate protein, 18 hours at 5° C.
estrogen receptor, sequence (P03372 whole entry): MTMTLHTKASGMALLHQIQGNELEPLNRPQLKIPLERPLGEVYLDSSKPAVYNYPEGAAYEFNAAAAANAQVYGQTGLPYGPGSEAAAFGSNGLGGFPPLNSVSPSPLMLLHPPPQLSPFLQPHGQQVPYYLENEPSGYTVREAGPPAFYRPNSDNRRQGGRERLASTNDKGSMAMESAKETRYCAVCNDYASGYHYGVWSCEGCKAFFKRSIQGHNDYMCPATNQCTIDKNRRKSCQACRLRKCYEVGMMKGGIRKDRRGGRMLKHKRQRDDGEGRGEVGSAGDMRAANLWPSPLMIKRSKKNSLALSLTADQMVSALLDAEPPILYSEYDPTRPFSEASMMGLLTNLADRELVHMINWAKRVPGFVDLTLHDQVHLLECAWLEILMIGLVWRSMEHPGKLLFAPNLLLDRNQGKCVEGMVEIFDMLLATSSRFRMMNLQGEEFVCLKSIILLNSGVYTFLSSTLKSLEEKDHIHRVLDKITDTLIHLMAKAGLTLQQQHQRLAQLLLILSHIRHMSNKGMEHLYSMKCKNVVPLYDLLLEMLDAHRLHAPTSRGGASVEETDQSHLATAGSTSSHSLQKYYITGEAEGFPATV
Method: Representative compounds of the present invention were tested in an estrogen receptor binding assay in which the test compounds were allowed to compete for binding with tritiated 17β-estradiol.
In the assay, serial dilutions of the test compound were mixed with 0.5 nM of ^3 H-17β-estradiol, along with 0.5 mg/mL of protein from MCF-7 lysates, to a total volume of 0.14 mL. Binding was allowed to take place for 18 hours at 5° C., followed by the addition of 0.07 mL of dextran/charcoal and centrifugation to remove non-bound radioligand. Aliquots of supernate containing bound radioligand were mixed with scintillant and counted. Relative binding affinity (RBA) was calculated as: [formula]

[1] = tested on: MCF-7 breast adenocarcinoma cells; assay: MCF-7 Proliferation Assay; assay type: cell-based; conditions: dose level of 500 nM
Method: A. MCF-7 Proliferation Assay Test Procedure MCF-7 breast adenocarcinoma cells (ATCC HTB 22) are maintained in MEM (minimal essential medium, phenol-red free, Sigma St. Louis Mo.) supplemented with 10% fetal bovine serum (FBS) (v/v), L-glutamine (2 mM), sodium pyruvate ([…]), HEPES (10 mM), non-essential amino acids, and bovine insulin (1 ug/mL). Ten days prior to the assay, the MCF-7 cells are switched to maintenance medium supplemented with 10% dextran-coated charcoal stripped fetal bovine serum (DCC-FBS) assay medium in place of the 10% FBS to deplete internal stores of estrogen. MCF-7 cells are removed from the maintenance flasks using a cell dissociating medium (Ca/Mg free HBSS; phenol-red free) supplemented with 10 mM HEPES and 2 mM EDTA. Cells are washed twice with the assay medium and adjusted to 80,000 cells/mL. Approximately 100 uL (8,000 cells)are added to a flat-bottomed micro culture well (Costar 3596) and incubated at 37° C. in a 5% CO2 humidified incubator for 48 hours to allow cell adherence and equilibrium after transfer. […] Samples are counted by liquid scintillation. Fifty percent inhibitory concentration of the test drugs (IC50) are determined versus the control (DMSO).

Row | Structure (SMILES) | Uterine Eosinophil (Vmax) (eosinophil peroxidase, Vmaximum) (ovariectomized rats; dose 0.1 mg/kg) | Serum Cholesterol % Decrease (ovariectomized rats; dose 0.1 mg/kg) [%] | Uterine Weight Increase (ovariectomized rats; dose 0.1 mg/kg) [%] | Uterine Eosinophil (Vmax) (eosinophil peroxidase, Vmaximum) (ovariectomized rats; dose 1.0 mg/kg) | Serum Cholesterol % Decrease (ovariectomized rats; dose 1.0 mg/kg) [%] | Uterine Weight Increase (ovariectomized rats; dose 1.0 mg/kg) [%] | Uterine Eosinophil (Vmax) (eosinophil peroxidase, Vmaximum) (ovariectomized rats; dose 10.0 mg/kg) | Serum Cholesterol % Decrease (ovariectomized rats; dose 10.0 mg/kg) [%] | Uterine Weight Increase (ovariectomized rats; dose 10.0 mg/kg) [%] | Relative binding affinity (RBA) (estrogen receptor) | Uterine Eosinophil (Vmax) (eosinophil peroxidase, Vmaximum) (ovariectomized rats; dose 0.01 mg/kg) | Serum Cholesterol % Decrease (ovariectomized rats; dose 0.01 mg/kg) [%] | Uterine Weight Increase (ovariectomized rats; dose 0.01 mg/kg) [%] | inhibition of breast cancer cell proliferation [1] | eosinophil infiltration into the uterus (in words) (ovariectomized rats; EE2 group) | serum cholesterol (in words) (ovariectomized rats; orally administered at 0.1 mg/kg/day) | uterine weight (in words) (ovariectomized rats; orally at 0.1 mg/kg/day, versus ovariectomized animals)
1 | COc1ccc2c3c(sc2c1)[C@@H]1CC[C@@H](O)[C@]1(C)CC3 [Example 4a, 3α-Hydroxy-8-methoxy-3aα-methyl-2,3,3a,4,5,10bα-hexahydro-1H-benz[b]indeno[5,4-d]thiophene] | 3.6 | -5.5 | 10.4 | 3.3 | -8.1 | 14.8 | 2.4 | 63.8 | 37.6 |  |  |  |  |  |  |  | 
2 | C[C@]12CCc3c(sc4cc(O)ccc34)[C@@H]1CC[C@@H]2O [Example 8, 3β,8-Dihydroxy-3aβ-methyl-2,3,3a,4,5,10bα-tetrahydro-1H-benz[b]indeno[5,4-d]thiophene] | 4.5 | 10.6 | 1.4 | 3.0 | 16.9 | 0.2 | 14.7 | 30.7 | 48.4 | 16 | 4.2 | -1 | 13.7 |  |  |  | 
3 | C[C@@]12CCc3c(sc4cc(O)ccc34)[C@H]1CC[C@H]2O [Example 11, 3α,8-Dihydroxy-3aα-methyl-2,3,3a,4,5,10bβ-tetrahydro-1H-benz[b]indeno[5,4-d]thiophene] |  |  |  |  |  |  |  |  |  | 4 |  |  |  |  |  |  | 
4 | C[C@]12CCc3c(sc4cc(O)ccc34)[C@H]1CC[C@@H]2O [Example 7, 3β,8-Dihydroxy-3aβ-methyl-2,3,3a,4,5,10bβ-tetrahydro-1H-benz[b]indeno[5,4-d]thiophene] | 4.8 | 13 | 4.4 | 3.6 | 45.9 | 9.1 | 123.0 | 80.7 | 123.0 | 11 | 4.8 | 24.3 | -3.2 | inhibit breast cancer cell proliferation |  |  | 
5 | COc1ccc2c3c(sc2c1)C1=CC[C@H](O)[C@@]1(C)CC3 [Example 1, 3β-Hydroxy-8-methoxy-3aβ-methyl-3,3a,4,5-tetrahydro-2H-benz[b]indeno[5,4-d]thiophene] | 5.4 | 5 | 6.3 | 4.8 | 27.5 | 34.9 | 25.2 | 60.3 | 52.7 |  | 4.5 | 30.0 | -4.6 |  |  |  | 
6 | C[C@@]12CCc3c(sc4cc(O)ccc34)[C@@H]1CC[C@H]2O [Example 10, 3α,8-Dihydroxy-3aα-methyl-2,3,3a,4,5,10bα-tetrahydro-1H-benz[b]indeno[5,4-d]thiophene] |  |  |  |  |  |  |  |  |  | 4 |  |  |  |  |  |  | 
7 | COc1ccc2c3c(sc2c1)[C@H]1CC[C@@H](O)[C@]1(C)CC3 [Example 4b, 3α-hydroxy-8-methoxy-3aα-methyl-2,3,3a,4,5,10bβ-hexahydro-1H-benz[b]indeno[5,4-d]thiophene] | 3.9 | -12 | -2.6 | 3.9 | -4.3 | 10.7 | 30.0 | 73.1 | 116.3 |  |  |  |  |  |  |  | 
8 | COc1ccc2c3c(sc2c1)[C@H]1CC[C@H](O)[C@]1(C)CC3 [Example 6, 3β-Hydroxy-8-methoxy-3aα-methyl-2,3,3a,4,5,10bβ-tetrahydro-1H-benz[b]indeno[5,4-d]thiophene] | 3.0 | -0.3 | 4.8 | 1.2 | -4.7 | 9.8 | 8.1 | 63.7 | 86.9 |  |  |  |  |  |  |  | 
9 | COc1ccc2c3c(sc2c1)[C@@H]1CC[C@@H](O)[C@@]1(C)CC3 [Example 5, 3α-Hydroxy-8-methoxy-3aβ-methyl-2,3,3a,4,5,10bα-tetrahydro-1H-benz[b]indeno[5,4-d]thiophene] | 3.6 | -18.5 | 1.7 | 4.5 | 40.9 | 13.7 | 18.3 | 87.0 | 103.6 |  | 2.1 | 14.8 | -5.9 |  |  |  | 
10 | C#C[C@]1(O)CC[C@H]2[C@@H]3CCc4cc(O)ccc4[C@H]3CC[C@@]21C [EE2, 17-a-ethynyl estradiol, reference compound] | 111.2 | 88.1 | 125.8 |  |  |  |  |  |  |  |  |  |  |  | substantial and expected increase in eosinophil infiltration | caused a decrease in serum cholesterol | substantially greater than the uterine weight of the ovariectomized animals
11 | C[C@]12CCc3c(sc4cc(O)ccc34)[C@@H]1CC[C@H]2O [Example 9, 3α,8-Dihydroxy-3aβ-methyl-2,3,3a,4,5,10bα-tetrahydro-1H-benz[b]indeno[5,4-d]thiophene] | 3.3 | 12.4 | 10.2 | 3.9 | 32.1 | -5.3 | 106.5 | 90.9 | 103.1 | 9 | 4.5 | 5.7 | 5.5 |  |  |  | 
